This passage reports IC50 results from BindingDB's records for doi:10.3109/14756366.2012.656622 (Shandong University, 2013).

For assay [1], the target named is 72 kDa type IV collagenase (Pig, UniProt Q95JA4). The experiment in a line: MMP-2 Inhibition Assay. Here is the method:
Gelatinase A (MMP-2) and TNBS were purchased from Sigma, and the substance was synthesized as described by Vijaykumar et al. The gelatinase, substance, and inhibitor were dissolved in sodium borate (pH8.5, 50 mmol/L) and incubated for 30 min at 37 °C, and then 0.03 % TNBS was added and incubated for another 20 min, the resulting solution was detected under 450 nm wavelength to gain absorption.

The target in the next assay is T1, Aminopeptidase N (Sus scrofa, UniProt P15145).
T1 sequence (P15145 whole entry): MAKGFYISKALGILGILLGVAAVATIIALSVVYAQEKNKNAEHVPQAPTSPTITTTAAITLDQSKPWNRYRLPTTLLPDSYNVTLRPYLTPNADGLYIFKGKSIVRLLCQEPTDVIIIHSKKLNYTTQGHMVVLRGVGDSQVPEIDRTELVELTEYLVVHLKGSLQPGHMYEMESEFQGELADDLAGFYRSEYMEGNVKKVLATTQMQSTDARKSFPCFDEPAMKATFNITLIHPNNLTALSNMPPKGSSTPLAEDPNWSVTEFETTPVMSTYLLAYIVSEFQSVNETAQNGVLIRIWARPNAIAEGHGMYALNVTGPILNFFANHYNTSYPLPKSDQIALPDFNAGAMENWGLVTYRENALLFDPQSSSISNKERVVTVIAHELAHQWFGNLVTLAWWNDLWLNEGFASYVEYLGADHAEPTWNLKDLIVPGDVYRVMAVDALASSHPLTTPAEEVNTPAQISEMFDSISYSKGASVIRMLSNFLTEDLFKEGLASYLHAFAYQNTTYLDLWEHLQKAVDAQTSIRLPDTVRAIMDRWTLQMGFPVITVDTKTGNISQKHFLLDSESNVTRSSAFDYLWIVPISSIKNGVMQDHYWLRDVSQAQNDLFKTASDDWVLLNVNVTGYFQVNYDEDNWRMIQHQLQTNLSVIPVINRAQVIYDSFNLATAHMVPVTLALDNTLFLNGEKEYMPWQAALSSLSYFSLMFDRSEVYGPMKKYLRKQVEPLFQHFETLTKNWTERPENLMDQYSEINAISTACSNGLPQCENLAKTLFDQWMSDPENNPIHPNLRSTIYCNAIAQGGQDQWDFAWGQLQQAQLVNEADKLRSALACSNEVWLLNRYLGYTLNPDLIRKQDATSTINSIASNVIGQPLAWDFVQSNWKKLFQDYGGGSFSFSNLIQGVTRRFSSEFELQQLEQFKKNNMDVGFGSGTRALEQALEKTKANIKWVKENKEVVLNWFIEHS
Description: APN Inhibition Assay. Conditions: pH 7.5; 25 °C. Here is the method: IC50 values against APN from Porcine Kidney were determined by using L-Leu-p-nitroanilide as a substrate. All the solutions of the inhibitors were prepared in the assay buffer( pH 7.5). All the inhibitors were preincubated with APN for 5 min at room temperature. The assay mixture, which contained the inhibitor solution (concentration dependent on the inhibitor), the enzyme solution (4 mg/mL final concentration), and the assay buffer, was adjusted to 200 μL, and then incubated at 37 ℃ for 30 min.

Where a name gives a salt, the structure may show the parent alone.

Sequence of 72 kDa type IV collagenase (Q95JA4 whole entry): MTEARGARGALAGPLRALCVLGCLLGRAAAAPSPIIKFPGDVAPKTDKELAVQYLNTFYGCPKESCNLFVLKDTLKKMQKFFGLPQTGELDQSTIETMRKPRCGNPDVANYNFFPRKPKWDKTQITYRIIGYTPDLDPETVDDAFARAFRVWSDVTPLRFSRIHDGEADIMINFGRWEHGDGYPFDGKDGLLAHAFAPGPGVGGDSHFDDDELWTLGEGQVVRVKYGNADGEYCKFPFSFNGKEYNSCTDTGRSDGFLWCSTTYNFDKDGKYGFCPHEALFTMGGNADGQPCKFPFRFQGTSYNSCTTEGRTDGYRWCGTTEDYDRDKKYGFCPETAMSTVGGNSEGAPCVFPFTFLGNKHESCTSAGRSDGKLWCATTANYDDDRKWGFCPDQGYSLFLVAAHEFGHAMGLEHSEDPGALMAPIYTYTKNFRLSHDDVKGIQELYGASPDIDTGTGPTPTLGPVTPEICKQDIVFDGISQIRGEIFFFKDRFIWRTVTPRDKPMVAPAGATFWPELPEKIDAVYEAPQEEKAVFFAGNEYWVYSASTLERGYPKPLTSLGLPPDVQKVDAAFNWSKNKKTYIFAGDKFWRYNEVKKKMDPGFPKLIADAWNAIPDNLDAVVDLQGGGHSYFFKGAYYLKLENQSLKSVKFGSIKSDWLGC

The term IC50 denotes the concentration that gives 50% inhibition. Regarding `CC(C)C[C@H](NC(=O)[C@@H](O)[C@H](N)Cc1ccccc1)C(=O)O`, the midpoint of inhibition in assay [1], the IC50, lay at 163 µM. As to `N[C@@H](c1ccccc1)[C@@H](O)C(=O)N[C@@H](Cc1ccc(O)cc1)C(=O)NO` [(2R,3S)-3-amino-2-hydroxy-N-((S)-1-(hydroxyamino)-3-(4-hydroxyphenyl)-1-oxopropan-2-yl)-3-phenylpropanamide hydrochloride (7g)], the IC50 is 173 µM on Aminopeptidase N and 299 µM in assay [1]. Turning to `CC(C)[C@H](NC(=O)[C@H](O)[C@@H](N)c1ccccc1)C(=O)NO` [(S)-2-((2R,3S)-3-amino-2-hydroxy-3-phenylpropanamido)-N-hydroxy-3-methylbutanamide hydrochloride (7b)], the IC50 at Aminopeptidase N came out at 76.9 µM; in assay [1] it was 128 µM. The corresponding values for `CC(C)C[C@H](NC(=O)[C@H](O)[C@@H](N)c1ccccc1)C(=O)O` [(S)-2-((2R,3S)-3-amino-2-hydroxy-3-phenylpropanamido)-4-methylpentanoic acid hydrochloride (5a)] are 352 µM and 215 µM. The corresponding values for `C[C@H](NC(=O)[C@H](O)[C@@H](N)c1ccccc1)C(=O)O` [(S)-2-((2R,3S)-3-amino-2-hydroxy-3-phenylpropanamido)propanoic acid hydrochloride (5c)] are 342 µM and 273 µM. Turning to `C[C@H](NC(=O)[C@H](O)[C@@H](N)c1ccccc1)C(=O)NO` [(2R,3S)-3-amino-2-hydroxy-N-((S)-1-(hydroxyamino)-1-oxopropan-2-yl)-3-phenylpropanamide hydrochloride (7c)], the IC50 in assay [1] came out at 292 µM.

Take `CC(C)C[C@H](NC(=O)[C@H](O)[C@@H](N)c1ccccc1)C(=O)N[C@H](C(=O)O)C(C)C` [(S)-2-((S)-2-((2R,3S)-3-amino-2-hydroxy-3-phenylpropanamido)-4-methylpentanamido)-3-methylbutanoic acid hydrochloride (5i)]: the values for the IC50 (against Aminopeptidase N; in assay [1]) were 590 µM and 690 µM, respectively.

In the case of `Cc1ccccc1NC(=O)[C@H](CC(C)C)NC(=O)[C@H](O)[C@@H](N)c1ccccc1` [(S)-2-((2R,3S)-3-amino-2-hydroxy-3-phenylpropanamido)-4-methyl-N-o-tolylpentanamide hydrochloride (9b)], the IC50 on Aminopeptidase N amounted to 363 µM. With `N[C@@H](c1ccccc1)[C@@H](O)C(=O)N[C@@H](Cc1ccc(O)cc1)C(=O)O` [(S)-2-((2R,3S)-3-amino-2-hydroxy-3-phenylpropanamido)-3-(4-hydroxyphenyl) propanoic acid hydrochloride (5g)], the IC50 in assay [1] was found to be 407 µM. `N[C@@H](c1ccccc1)[C@@H](O)C(=O)N[C@H](C(=O)O)c1ccccc1` [(S)-2-((2R,3S)-3-amino-2-hydroxy-3-phenylpropanamido)-2-phenylacetic acid hydrochloride (5e)]: the IC50 turned out to be 198 µM on Aminopeptidase N and 254 µM in assay [1].

`N[C@@H](c1ccccc1)[C@@H](O)C(=O)N[C@H](C(=O)NO)c1ccccc1` [(2R,3S)-3-amino-2-hydroxy-N-((S)-2-(hydroxyamino)-2-oxo-1-phenylethyl)-3-phenylpropanamide hydrochloride (7e)]: the results for the 50% inhibitory concentration (IC50) (against Aminopeptidase N; in assay [1]) were 1.26 µM and 213 µM, respectively. Regarding `CC(C)C[C@H](NC(=O)[C@H](CC(C)C)NC(=O)[C@H](O)[C@@H](N)c1ccccc1)C(=O)O` [(S)-2-((S)-2-((2R,3S)-3-amino-2-hydroxy-3-phenylpropanamido)-4-methylpentanamido)-4-methylpentanoic acid hydrochloride (5j)], the IC50 on Aminopeptidase N was found to be 513 µM; in assay [1], 424 µM. In assay [1], `CC(C)[C@H](NC(=O)[C@H](O)[C@@H](N)c1ccccc1)C(=O)O` [(S)-2-((2R,3S)-3-amino-2-hydroxy-3-phenylpropanamido)-3-methylbutanoic acid hydrochloride (5b)] gave an IC50 of 287 µM. The same measure, in the same setting: next, `N[C@@H](c1ccccc1)[C@@H](O)C(=O)N[C@@H](CO)C(=O)O` [(S)-2-((2R,3S)-3-amino-2-hydroxy-3-phenylpropanamido)-3-hydroxypropanoic acid hydrochloride (5h)]: 562 µM. The same measure, in the same setting: next, `CCC(C)[C@H](NC(=O)[C@H](O)[C@@H](N)c1ccccc1)C(=O)O` (stereo partly drawn) [(2S)-2-((2R,3S)-3-amino-2-hydroxy-3-phenylpropanamido)-3-methylpentanoic acid hydrochloride (5d)]: 264 µM.

Regarding `N[C@@H](c1ccccc1)[C@@H](O)C(=O)N[C@@H](CO)C(=O)NO` [(2R,3S)-3-amino-2-hydroxy-N-((S)-3-hydroxy-1-(hydroxyamino)-1-oxopropan-2-yl)-3-phenylpropanamide hydrochloride (7h)], the results for the IC50 (at Aminopeptidase N; in assay [1]) were 158 µM and 292 µM, respectively.

Regarding `CC(C)C[C@H](NC(=O)[C@H](Cc1ccccc1)NC(=O)[C@H](O)[C@@H](N)c1ccccc1)C(=O)O` [(S)-2-((S)-2-((2R,3S)-3-amino-2-hydroxy-3-phenylpropanamido)-3-phenylpropanamido)-4-methylpentanoic acid hydrochloride (5n)], the IC50 against Aminopeptidase N came out at 105 µM. With `N[C@@H](c1ccccc1)[C@@H](O)C(=O)N[C@@H](Cc1ccccc1)C(=O)O` [(S)-2-((2R,3S)-3-amino-2-hydroxy-3-phenylpropanamido)-3-phenylpropanoic acid hydrochloride (5f)], in assay [1], the midpoint of inhibition, the IC50, lay at 497 µM.

For `CC(C)C[C@H](NC(=O)[C@H](O)[C@@H](N)c1ccccc1)C(=O)NC(C(=O)O)c1ccccc1` (stereo partly drawn) [(S)-2-((S)-2-((2R,3S)-3-amino-2-hydroxy-3-phenylpropanamido)-4-methylpentanamido)-2-phenylacetic acid hydrochloride (5k)], inhibition in assay [1] was half-maximal at 186 µM (IC50). Regarding `CC(C)C[C@H](NC(=O)[C@H](O)[C@@H](N)c1ccccc1)C(=O)NO` [(S)-2-((2R,3S)-3-amino-2-hydroxy-3-phenylpropanamido)-N-hydroxy-4-methylpentanamide hydrochloride (7a)], the half-maximal inhibitory concentration (IC50) amounted to 56.7 µM against Aminopeptidase N and 64.6 µM in assay [1].

On to `CCC(C)[C@H](NC(=O)[C@H](O)[C@@H](N)c1ccccc1)C(=O)NO` (stereo partly drawn) [(2S)-2-((2R,3S)-3-amino-2-hydroxy-3-phenylpropanamido)-N-hydroxy-3-methylpentanamide hydrochloride (7d)], for which the IC50 came to 82.9 µM at Aminopeptidase N and 207 µM in assay [1]. On the same counts, the results for `N[C@@H](c1ccccc1)[C@@H](O)C(=O)N[C@@H](Cc1ccccc1)C(=O)NO` [(2R,3S)-3-amino-2-hydroxy-N-((S)-1-(hydroxyamino)-1-oxo-3-phenylpropan-2-yl)-3-phenylpropanamide hydrochloride (7f)] are 44 µM and 249 µM.
